{"source": "paper PMC8009478", "about": "“Novel Curcumin-Diethyl Fumarate Hybrid as a Dualistic GSK-3β Inhibitor/Nrf2 Inducer for the Treatment of Parkinson’s Disease” (ACS Chemical Neuroscience, 2020)", "key": {"[1]": {"tested_on": "C. elegans BY250 [vtIs7 (Pdat-1:GFP)] CEP neurons", "test": "6-OHDA-induced neurodegeneration of CEP neurons in the C. elegans model of PD", "type": "in vivo, Caenorhabditis elegans", "conditions": "6-OHDA 5 mM alone for 30 min, scored after 72 h", "description": "The nematode Caenorhabditis elegans (C. elegans) has been increasingly employed as a genetically tractable in vivo model to study the molecular mechanisms involved in several NDDs due to a short life cycle, fast reproduction, and a highly conserved inheritance (genetic basis).[35] This invertebrate model offers the opportunity to take advantage of the significant conservation of genes and metabolic pathways common to both invertebrates and humans. At the neuronal level, the adult wild-type C. elegans organism contains only eight DA neurons that repeat the features of DA neurons of mammalian, making it possible to simplify the investigations considerably. In the transgenic BY250 [vtIs7 (Pdat-1:GFP)] strain, six DA neurons in the head, namely the four sensory cephalic (CEP) and the two anterior deirid (ADE) neurons, express the green fluorescent protein (GFP) and can be clearly visualized by fluorescence microscopy analysis and thus scored over time.[36] Indeed, in this model, investigations of DA neurons degeneration in vivo are feasible through a first exposition of the nematode to PD-inducing toxin, namely 6-OHDA, followed by direct visualization of the GFP-labeled DA neurons.[37] It is thus possible to screen small molecules for their anti-PD potential, in terms of rescue of the DA neurodegeneration phenotype manifested upon neurotoxin exposure, through visualization and scoring of the alterations of CEP neuron count or neuronal morphology. […] This effect makes it possible the identification of neuroprotective agents with the ability to activate Nrf2 through the inhibition of GSK-3.[38] The curcumin-DEF hybrids 4 and 5 were investigated in the above C. elegans model for their protective effects on 6-OHDA-induced degeneration of a subclass of DA neurons. Animals were incubated with 5 μM concentration of 4 and 5, in the presence of 5 mM of 6-OHDA, for 30 min. After 72 h, the animals were studied by examining the four CEP neurons. Degenerating CEP neurons were morphologically analyzed and quantified (Figure 8). We recorded that in animals treated with 6-OHDA, 68% of CEP neurons degenerated.\nFigure 8 Effects of 4 and 5 on 6-OHDA-induced neurodegeneration in C. elegans. Animals were treated with 4 or 5 (5 μM) in the presence of 6-OHDA (5 mM) for 30 min. At the end of incubation, treated animals were placed on fresh agar plates for 72 h and then visualized as described in the Materials and Methods section. (A) In nontreated vtIs7 [pdat-1::GFP] transgenic animals, dopaminergic neurons express GFP, with two of the four CEP cell bodies (white arrows) and relative dendrites (arrowheads) visible in this focal plane in the head. (B) 6-OHDA treatment causes the degeneration of CEP dendrites (empty arrowheads) and two cell bodies (gray arrows), in treated animals. The other two CEP neurons are not visible anymore. (C) Compound 5 cotreatment partially rescues the 6-OHDA-induced toxic effects, with degeneration of one of the CEP dendrites (empty arrowhead) but not the other (arrowhead) and with one CEP cell body still viable (white arrow) and one dying (gray arrow) in this focal plane. […] ADE neurons, which are less affected by 6-OHDA treatment, are also visible but were not scored (asterisks). (D) Quantification of degenerating CEP neurons. Data are expressed as percentages of degenerating neurons and reported as mean ± SEM of at least three independent experiments. […]"}, "PAMPA-BBB assay": {"test": "PAMPA-BBB assay", "conditions": "for Papp at 2.5 h: pig, PAMPA, pH 7.4; for prediction (penetration in the CNS): from PAMPA-BBB Pe"}, "GSK-3β [2]": {"tested_on": "GSK-3β", "design": "method as in PMID 28597702", "conditions": "previously identified GSK-3β inhibitors; ref 21b; cited from earlier work"}, "SH-SY5Y cells [3]": {"tested_on": "SH-SY5Y cells", "test": "t-BuOOH-induced intracellular ROS formation (H2DCF-DA probe)", "type": "cell-based, human", "conditions": "then t-BuOOH 100 μM for 30 min", "description": "Oxidative stress represents a remarkable pathological feature in NDDs; it is the consequence of an imbalance between the formation of reactive radical species, among others ROS, and the function of many defense antioxidant enzymes. Initially, the potential of compounds 4–7 as indirect antioxidants was investigated[31] by assessing their capability to protect from oxidative stress through prevention of ROS formation upon exposure to tert-butyl hydroperoxide (t-BuOOH). In detail, SH-SY5Y cells were first chronically treated for 24 h (the time necessary to activate the endogenous antioxidant system) with 4–7 (5 μM) and then exposed to 100 μM of t-BuOOH for 30 min; DMF (5 and 10 μM) was employed as the reference compound. Then, the intracellular ROS formation was detected by fluorescent probe 2′-7′-dichlorodihydrofluorescein diacetate (H2DCF-DA).\nFigure 3 Antioxidant activity of compounds 4–7 and DMF against t-BuOOH-induced ROS formation in SH-SY5Y cells. Cells were treated with compounds 4–7 (5 μM) and DMF (5 and 10 μM) for 24 h and then with t-BuOOH (100 μM) for 30 min. At the end of treatment, the ROS formation was evaluated by probe H2DCF-DA. Results are expressed as mean ± SEM of at least three independent experiments (* p < 0.05 and ** p < 0.01 vs cells treated with t-BuOOH at one-way ANOVA with the Dunnett post hoc test).\nROS formation was evaluated by using the fluorescent probe H2DCF-DA, as previously described.[43]"}, "GSK-3β [4]": {"biological_target": "T1, GSK-3β (Homo sapiens, UniProt P49841)", "T1 sequence (P49841 whole entry)": "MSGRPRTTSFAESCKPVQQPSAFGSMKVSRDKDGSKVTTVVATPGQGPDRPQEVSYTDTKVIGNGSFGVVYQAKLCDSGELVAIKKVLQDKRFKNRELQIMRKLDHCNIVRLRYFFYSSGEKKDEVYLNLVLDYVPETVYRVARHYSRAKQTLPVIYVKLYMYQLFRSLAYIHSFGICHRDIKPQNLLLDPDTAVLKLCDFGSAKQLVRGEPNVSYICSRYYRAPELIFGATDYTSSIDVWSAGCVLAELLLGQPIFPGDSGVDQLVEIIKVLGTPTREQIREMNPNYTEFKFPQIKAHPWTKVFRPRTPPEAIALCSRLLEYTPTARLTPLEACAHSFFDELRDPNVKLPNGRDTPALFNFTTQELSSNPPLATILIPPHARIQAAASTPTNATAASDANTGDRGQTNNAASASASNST", "test": "GSK-3β inhibition, luminescent kinase assay (Kinase-Glo)", "conditions": "for IC50: GSK-3β inhibition IC50 (μM) ± SEM, human recombinant enzyme, luminescence method", "quoted_text": "A kinetic study was performed in which the concentrations of both ATP and tested compounds were varied, while the concentration of the substrate was kept constant.\nGSK-3β inhibition . Kinase-Glo assays (Promega Biotech Iberica, SL) were performed in assay buffer using\nblack 96-well plates. In a typical assay, 10 µl (10 µM) of test compound (dissolved in DMSO at 1 mM concentration and diluted in advance in assa y buffer to the desired concentration) and 10 µL (20 ng) of\nenzyme were added to each well followed by 20 µl of assay buffer containing 50 µM substrate and 2 µM ATP.\nAfter 30 -min incu bation at 30 °C\nthe enzymatic reaction was stopped with 40 µL of Kinase -Glo reagent. Glow -type luminescence was recorded\nafter 10 min using a FLUOstar Optima (BMG Labtechnologies GmbH, Offenburg Germany) multimode reader.\nThe activity is proportional to th e difference in the total and consumed ATP. The inhibitory activities were\ncalculated on the basis of maximal activities measured in the absence of inhibitor. The IC 50 was defined as the concentration of each compound that reduces a 50 % the enzymatic activity with respect to that without\ninhibitors. Five different concentrations by duplicate were used to determine the dose/response curve."}, "GSK-3β [5]": {"biological_target": "T1, GSK-3β", "test": "Kinetic study of GSK-3β inhibition, competition with ATP (ADP-Glo Kinase Assay)", "type": "biochemical", "conditions": "ATP 1 to 50 μM; inhibitors 5 and 10 μM; substrate 25 μM; double reciprocal plot", "description": "Figure 2 Kinetic data for the curcumin-DEF hybrids 5 and 6. In the reaction mixture, the concentration of compounds employed is reported in the plot, the concentration of the substrate is constant (25 μM), and the concentration of ATP changes from 1 to 50 μM. Each point is the mean of two different experiments analyzed in triplicate.\nKinetic experiments were performed using the ADP-Glo Kinase Assay,[42] in which ATP concentration varied from 1 to 50 μM, the concentrations of inhibitors employed were 5 and 10 μM, while the concentration of GS2 was kept constant (25 μM). Graphs (Figure 2) report the double reciprocal plot of the data."}, "[6]": {"test": "Chemical stability study by RP-HPLC", "type": "physicochemical", "conditions": "DMSO 0.50 mg/mL, pH 7.4 with 50 mM phosphate, 70 °C, 24 h", "description": "Conscious of the liabilities that might affect the newly synthesized curcumin-fumarate hybrids involving both the curcumin scaffold and the ester function, the chemical stability of the ester-based 6 and its carboxylic-acid counterpart 7 was studied by RP-HPLC.[21b]\nThe tested derivatives 6 and 7 were dissolved in DMSO (0.50 mg/mL), and the pH of the solution was adjusted to 7.4 using 50 mM phosphate. The obtained solutions were then maintained at 70 °C (oven) for 24 h and analyzed by RP-HPLC under the conditions reported in the General Procedures section."}, "SH-SY5Y cells [7]": {"tested_on": "SH-SY5Y cells", "test": "Intracellular GSH levels (MCB probe)", "type": "cell-based, human", "conditions": "DMF at 5 and 10 μM, 24 h", "description": "By observing the reduction of ROS levels following a long treatment of the curcumin-DEF hybrids before the treatment with t-BuOOH, we hypothesized that the antioxidant effect might likely result from an increase in levels of GSH. This endogenous antioxidant plays critical roles in protecting cells against oxidative stress damage.[32] Thus, the intracellular GSH levels were analyzed by employing the same experimental conditions used to evaluate the indirect antioxidant effect by fluorescent probe monochlorobimane (MCB). […] For the most promising compounds 4 and 5, the effect on GSH levels at different times (3–24 h) was studied.\nFigure 4 Effects of compounds 4–7 and DMF on GSH levels in SH-SY5Y cells. Cells were treated with (A) compounds 4–7 (5 μM) and DMF (5 and 10 μM) for 24 h. (B) Cells were treated with compounds 4 and 5 (5 μM) for different times (3, 6, 12, and 24 h). At the end of the treatment, the GSH levels were evaluated by probe MCB. Results are expressed as mean ± SEM of at least three independent experiments (** p < 0.01 and *** p < 0.001 vs untreated cells at one-way ANOVA with the Dunnett post hoc test).\nGSH levels were evaluated by using the fluorescent probe MCB, as previously described.[44]"}, "[8]": {"conditions": "pig, PAMPA, 2.5 h, pH 7.4"}, "in vitro": {"test": "in vitro", "conditions": "pig, PAMPA, pH 7.4"}, "[9]": {"design": "method as in earlier work", "conditions": "literature values of commercial drugs; ref 1 (Di et al., 2003); cited from earlier work"}}, "note": "Values joined by “and” are separate entries in the source; they are usually repeats but may differ in a detail not shown here. Equal values may be shown once. Where a name gives a salt, the structure may show the parent alone.", "data": [{"compound": "NCCc1cc(O)c(O)cc1O", "note": "[6-OHDA, 6-hydroxydopamine, reference compound]", "values": [{"measurement": "degenerating CEP neurons", "setting": "[1]", "value": 68, "unit": "%"}]}, {"compound": "Cn1c(=O)c2c(ncn2C)n(C)c1=O", "note": "[Caffeine, reference compound]", "values": [{"measurement": "Papp at 2.5 h", "setting": "PAMPA-BBB assay", "value": 0.5, "unit": "×10⁻⁶ cm/s"}]}, {"compound": "COc1ccc(/C=C/C(=O)/C=C(O)/C=C/c2ccc(OC)cc2)cc1", "note": "[Compound 1]", "values": [{"measurement": "IC50", "setting": "GSK-3β [2]", "value": 0.53, "unit": "µM"}]}, {"compound": "COc1ccc(/C=C/C(O)=C/C(=O)/C=C/c2ccc(OCc3ccccc3)cc2)cc1", "note": "[Compound 2]", "values": [{"measurement": "IC50", "setting": "GSK-3β [2]", "value": 2.78, "unit": "µM"}]}, {"compound": "O=C(/C=C(O)/C=C/c1ccc(OCc2ccccc2)cc1)/C=C/c1ccc(OCc2ccccc2)cc1", "note": "[Compound 3]", "values": [{"measurement": "IC50", "setting": "GSK-3β [2]", "value": 2.49, "unit": "µM"}]}, {"compound": "CCOC(=O)/C=C/C(C(=O)/C=C/c1ccc(OCc2ccccc2)cc1)=C(O)\\C=C\\c1ccc(OCc2ccccc2)cc1", "note": "[Compound 6, Ethyl (2E,4Z,6E)-7-(4-(Benzyloxy)phenyl)-4-((E)-3-(4-(benzyloxy)phenyl)acryloyl)-5-hydroxyhepta-2,4,6-trienoate]", "values": [{"measurement": "t-BuOOH-induced intracellular ROS formation", "setting": "SH-SY5Y cells [3]; 5 μM for 24 h", "value": "not"}, {"measurement": "IC50", "setting": "GSK-3β [4]", "value": "6.1 µM and 6.09 µM"}, {"measurement": "mechanism of inhibition as regards competition with ATP", "setting": "GSK-3β [5]", "value": "noncompetitive inhibitors of ATP binding"}, {"measurement": "prediction (penetration in the CNS)", "setting": "PAMPA-BBB assay", "value": "CNS + (compounds showing a Pe value superior to 2.26 × 10^–6 cm s^–1 could be regarded as able to permeate the brain compartment and thus classified as (CNS +))"}, {"measurement": "Papp at 2.5 h", "setting": "PAMPA-BBB assay", "value": "4.5 ± 0.6", "unit": "×10⁻⁶ cm/s"}, {"measurement": "chemical stability", "setting": "[6]", "value": "stable"}, {"measurement": "melting point", "value": "153 to 155", "unit": "°C"}]}, {"compound": "O=C(O)/C=C/C(C(=O)/C=C/c1ccc(OCc2ccccc2)cc1)=C(O)\\C=C\\c1ccc(OCc2ccccc2)cc1", "note": "[Compound 7, (2E,4Z,6E)-7-(4-(Benzyloxy)phenyl)-4-((E)-3-(4-(benzyloxy)phenyl)acryloyl)-5-hydroxyhepta-2,4,6-trienoic Acid]", "values": [{"measurement": "t-BuOOH-induced intracellular ROS formation", "setting": "SH-SY5Y cells [3]; 5 μM for 24 h", "value": "not"}, {"measurement": "IC50", "setting": "GSK-3β [4]", "value": "> 10", "unit": "µM"}, {"measurement": "inhibition at 10 µM", "setting": "GSK-3β [4]; read-out: GSK-3β inhibition, inhibition (%)", "value": 46, "unit": "%"}, {"measurement": "prediction (penetration in the CNS)", "setting": "PAMPA-BBB assay", "value": "CNS +/CNS –"}, {"measurement": "Papp at 2.5 h", "setting": "PAMPA-BBB assay", "value": "1.7 ± 1", "unit": "×10⁻⁶ cm/s"}, {"measurement": "chemical stability", "setting": "[6]", "value": "formation of a degradation product was observed"}, {"measurement": "melting point", "value": "182 to 184", "unit": "°C"}]}, {"compound": "COC(=O)/C=C/C(=O)OC", "note": "[DMF, dimethyl fumarate, reference compound]", "values": [{"measurement": "t-BuOOH-induced intracellular ROS formation", "setting": "SH-SY5Y cells [3]; DMF 5 and 10 μM for 24 h", "value": "significant reduction"}, {"measurement": "increase in GSH levels", "setting": "SH-SY5Y cells [7]", "value": "2–3 fold"}]}, {"compound": "CNCCCN1c2ccccc2CCc2ccccc21", "note": "[Desipramine]", "values": [{"measurement": "Pe (10-6 cm s-1)", "setting": "[8]", "value": "8,7 10-6 cm s-1"}]}, {"compound": "CCn1cc(C(=O)O)c(=O)c2cc(F)c(N3CCNCC3)nc21", "note": "[Enoxacin]", "values": [{"measurement": "Papp at 2.5 h", "setting": "in vitro", "value": 0.5, "unit": "×10⁻⁶ cm/s"}]}, {"compound": "CN1C(C(=O)Nc2ccccn2)=C(O)c2ccccc2S1(=O)=O", "note": "[Piroxicam, reference compound]", "values": [{"measurement": "Papp at 2.5 h", "setting": "PAMPA-BBB assay", "value": 0.4, "unit": "×10⁻⁶ cm/s"}, {"measurement": "Bibl. Pe", "setting": "[9]", "value": "2.5 10-6 cm s-1"}]}, {"compound": "CN(C)CCCN1c2ccccc2Sc2ccccc21", "note": "[Promazine, reference compound]", "values": [{"measurement": "Papp at 2.5 h", "setting": "PAMPA-BBB assay", "value": 5.9, "unit": "×10⁻⁶ cm/s"}, {"measurement": "Bibl. Pe", "setting": "[9]", "value": "8.8 10-6 cm s-1"}]}]}
